Source: article PMC3540140 (Journal of molecular biology, 2012)

Legend:
JNK1 = JNK1 (Homo sapiens, UniProt P45983); test: IMAP-based FP kinase assay; assay type: biochemical
[1] = target: C-terminal truncated form of human JNK1α1 (residues 1–364) (human, UniProt P45983-2 1-364); test: crystal structure
Sequence of C-terminal truncated form of human JNK1α1 (residues 1–364) (P45983 1-364): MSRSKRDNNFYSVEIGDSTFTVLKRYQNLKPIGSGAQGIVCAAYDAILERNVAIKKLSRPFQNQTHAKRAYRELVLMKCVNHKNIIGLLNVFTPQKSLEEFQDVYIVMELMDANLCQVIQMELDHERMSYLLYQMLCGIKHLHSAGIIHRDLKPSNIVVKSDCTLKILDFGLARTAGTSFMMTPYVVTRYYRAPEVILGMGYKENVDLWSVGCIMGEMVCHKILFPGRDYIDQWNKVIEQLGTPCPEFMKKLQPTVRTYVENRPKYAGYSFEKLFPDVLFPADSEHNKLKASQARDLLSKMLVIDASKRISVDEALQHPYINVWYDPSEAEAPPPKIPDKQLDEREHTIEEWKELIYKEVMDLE

| IC50 (JNK1) [µM] | binding result [1] | Molecule |
| --- | --- | --- |
|  | binds | RPKRPTTLNLF [peptide fragment of JIP1 (pepJIP1)] |
